What was measured:
NKG2D ligands = assay: total NKG2D ligand expression on HCC cell lines, flow cytometry with NKG2D-Fc; assay type: cell-based, human
Description: (§1) FIGS. 17A-17N relate to expression of total NKG2D ligands and PD-L1 in relation to sorafenib concentration. FIGS. 17A-17F depict flow cytometry data related to changes in total NKG2D ligand expression in the indicated tumor cell lines in response to various concentrations of sorafenib (total expression is based on the use of the NKG2D-Fc fusion, so detection is of any ligand NKG2D could bind). FIGS. 17G-17L depict flow cytometry data related to changes in PD-L1 expression in the indicated tumor cell lines in response to various concentrations of sorafenib. FIGS. 17M and 17N are line graphs that summarize the flow cytometry data.
(§2) FIGS. 18A-18T relate to expression of total NKG2D ligands and PD-L1 in relation to Interferon gamma (IFNg) concentration. FIGS. 18A-18I depict flow cytometry data related to changes in total NKG2D ligand expression in the indicated tumor cell lines in response to various concentrations of IFNg (total expression is based on the use of the NKG2D-Fc fusion, so detection is of any ligand NKG2D could bind). […]
(§3) To investigate a possible mechanism of action regarding the sensitivity of hepatocellular carcinoma cells to sorafenib, the expression of the total population of NKG2D ligands on each cell line was measured in response to various doses of sorafenib. The total population of NKG2D ligands was detected through the use of the NKG2D-Fc chimeric antibody. […]

PD-L1 = PD-L1 expression on HCC cell lines, flow cytometry; assay type: cell-based, human
Description: as §1, §2, §3

Huh-7 = assay: sorafenib dose-response against HCC cell lines; settings: read-out: EC50 (concentration to achieve 50% cytotoxicity); FIG. 7B
SNU-387 cells = assay: sorafenib dose-response against HCC cell lines; settings: read-out: EC50 (concentration to achieve 50% cytotoxicity); FIG. 7B
HL60 cells = assay: HL60 leukemia cell growth in co-culture with NK cells, with or without HDAC inhibitor; assay type: cell-based; settings: valproic acid added to culture with NK cells expressing the NKG2D CAR (FIG. 35B)
Method: As discussed above, additional agents can be co-administered with engineered NK cells disclosed herein. For example, in several embodiments, histone deacetylase inhibitors are administered with engineered NK cells targeting an NKG2D ligand (or other tumor marker, such as CD123 or CD19). The leukemia cell line was grown alone as a control, co-cultured with NK cells expressing GFP, or co-cultured with NK cells expressing an NKG2D CAR as disclosed herein. By way of non-limiting example, the NKG2D CAR used in this example was NKG2D-OX40-[…]-mbIL15. […] According to additional embodiments, other HDAC inhibitors are used, such as romidepsin (e.g. FR901228), entinostat (e.g., MS-275) phenylbutyrate, belinostat (PDX101), sodium valproate, suberoylanilide hydroxamic acid, or combinations thereof.

Method for HCC cells: NKX101 cells were generated by transduction with a bicistronic virus encoding NKG2D, an intracellular OX40 costimulatory domain, CD33 signaling domain, and membrane-bound IL-15, which supports prolonged cell survival and proliferation. […] Combination with a sub-EC50 concentration of the kinase inhibitor Sorafenib (used here as a non-limiting example of an additional anti-cancer agent), an approved agent for HCC, was tested for additive cytotoxic effect with at low E:T ratios of NKX101 NK cells in vitro at 48 hrs.

Molecule: interferon gamma: inflammatory cytokine secreted by NK cells once activated
- change in total NKG2D ligand expression (NKG2D ligands; various concentrations of interferon gamma, nine HCC lines (FIG. 18S)): there does not appear to be a clear impact of interferon gamma on the expression of the total pool of NKG2D ligands
- change in PD-L1 expression (PD-L1; higher doses of interferon gamma (FIG. 18T)): several cell lines seem to show a trend towards increasing PD-L1 expression with the higher doses of interferon gamma

Molecule: CNC(=O)c1cc(Oc2ccc(NC(=O)Nc3ccc(Cl)c(C(F)(F)F)c3)cc2)ccn1 [sorafenib]
- change in total NKG2D ligand expression (NKG2D ligands; various doses of sorafenib (FIG. 17M)): does not appear to have a substantial impact on the NKG2D ligand expression
- change in PD-L1 expression (PD-L1; 10 micromolar sorafenib (FIG. 17N)): many of the cell lines show an increase in PD-L1 expression
- cytotoxic effect of combination (HCC cells): additive effect
- EC50 (Huh-7): 7.96 µM
- EC50 (SNU-387 cells): 29.4 µM

Molecule: CCCC(CCC)C(=O)O [valproic acid]
- HL60 cell growth (HL60 cells): synergistically interacted with the NK cells expressing the NKG2D CAR dramatically suppress HL-60 cell growth

Source: US20260069530A1, “METHODS OF TREATING PRIMARY LIVER TUMORS WITH NATURAL KILLER CELLS EXPRESSING A CYTOTOXIC RECEPTOR COMPLEX” (NKARTA, INC., priority 2018, published 2026)
